Measurements reported in patent US12398132B2, “Derivatives of 4-(imidazo[1,2-a]pyridin-3-yl)-n-(pyridinyl)pyrimidin-2-amine as therapeutic agents” (AUCENTRA THERAPEUTICS PTY LTD, priority 2019, dated 2025).
Like-named read-outs stand apart in the source and are kept apart here.

Experiments:
[1] = molecular target: CDK4/D1 (Homo sapiens, UniProt P11802); experiment: ADP Glo kinase assay, CDK4/D1; format: biochemical; conditions: CDK4D1; for remaining activity at 10 µM: compound at 10 μM, read-out: residual enzymatic activity (%) at 10 μM; for remaining activity at 1 µM: compound at 1 μM (values marked *), read-out: residual enzymatic activity (%) at 1 μM*
[2] = molecular target: CDK6/D3 (Homo sapiens, UniProt Q00534); experiment: ADP Glo kinase assay, CDK6/D3; format: biochemical; conditions: CDK6D3; for remaining activity at 10 µM: compound at 10 μM, read-out: residual enzymatic activity (%) at 10 μM; for remaining activity at 1 µM: compound at 1 μM (values marked *), read-out: residual enzymatic activity (%) at 1 μM*
Procedure: (§1) Inhibition of FLT3(WT), FLT3(ITD) and FLT3(D835Y) and CDKs were determined using ADP Glo Kinase assays (Promega Corporation, Madison, WI, USA). […] Similarly, kinase reaction for CDK4/D1 and CDK6/D3 was performed with reaction buffer (40 nM Tris base pH 7.5, 20 mM MgCl2, 0.4 mM DTT), 0.1 mg/ml BSA and RB-CTF substrate (retinoblastoma protein1 C-terminal fraction). For CDK9/CyclinT1, the kinase reaction was performed with the standard assay buffer and Kinase Dilution Buffer and RBER-IRStide substrate. Half-maximal inhibition (IC50) values were calculated using a 4-parameter logistic non-linear regression model with Graphpad prism (Version 6.0). Apparent inhibition constants (Ki) values were calculated from Km (ATP) and IC50 values for the respective kinases.

[3] = molecular target: CDK9/CyclinT1 (Homo sapiens, UniProt P50750); experiment: ADP Glo kinase assay, CDK9/CyclinT1; format: biochemical; conditions: CDK9T1; for Ki: apparent Ki calculated from Km (ATP) and IC50, read-out: CDK inhibition Ki; for remaining activity at 1 µM: compound at 1 μM (values marked *), read-out: residual enzymatic activity (%) at 1 μM*; for remaining activity at 10 µM: compound at 10 μM, read-out: residual enzymatic activity (%) at 10 μM
Procedure: as §1

[4] = tested on: MV-4-11; experiment: Proliferation assay (resazurin/MTT), MV-4-11; format: cell-based; conditions: Homo sapiens, MV4-11, read-out: 72 h Growth inhibition GI50, MV-4-11 cells
[5] = tested on: U937; experiment: Proliferation assay (resazurin/MTT), U937; format: cell-based; conditions: Homo sapiens, U-937, read-out: 72 h Growth inhibition GI50, U937 cells
[6] = molecular target: CDK1B (Homo sapiens, UniProt P06493)
[7] = molecular target: CDK2E1 (Homo sapiens, UniProt P24941); conditions: 1 µM
[8] = molecular target: CDK7HMAT1 (Homo sapiens, UniProt P50613);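 note: kinase activity measured with an ADP-Glo luminescent kinase assay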
Sequence of CDK7HMAT1 (P50613 whole entry): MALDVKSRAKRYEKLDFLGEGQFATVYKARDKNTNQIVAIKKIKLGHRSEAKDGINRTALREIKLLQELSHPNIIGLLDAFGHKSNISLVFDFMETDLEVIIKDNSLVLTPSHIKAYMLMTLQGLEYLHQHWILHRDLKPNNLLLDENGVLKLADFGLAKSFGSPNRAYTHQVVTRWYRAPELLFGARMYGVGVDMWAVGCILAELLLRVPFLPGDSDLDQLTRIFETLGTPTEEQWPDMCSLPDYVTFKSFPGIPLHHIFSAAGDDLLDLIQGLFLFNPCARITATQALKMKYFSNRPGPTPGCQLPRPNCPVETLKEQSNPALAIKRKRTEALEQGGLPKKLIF
Sequence of CDK7HMAT1 (P51946 whole entry partner): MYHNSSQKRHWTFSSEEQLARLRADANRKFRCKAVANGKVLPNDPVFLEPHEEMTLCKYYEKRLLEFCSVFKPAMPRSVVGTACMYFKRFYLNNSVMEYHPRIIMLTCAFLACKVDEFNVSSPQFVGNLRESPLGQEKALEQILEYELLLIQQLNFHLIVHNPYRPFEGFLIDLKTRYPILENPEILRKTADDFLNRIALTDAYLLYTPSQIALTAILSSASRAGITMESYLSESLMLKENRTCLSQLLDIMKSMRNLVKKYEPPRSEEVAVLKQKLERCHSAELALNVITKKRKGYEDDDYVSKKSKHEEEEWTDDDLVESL
Sequence of CDK7HMAT1 (P51948 whole entry partner): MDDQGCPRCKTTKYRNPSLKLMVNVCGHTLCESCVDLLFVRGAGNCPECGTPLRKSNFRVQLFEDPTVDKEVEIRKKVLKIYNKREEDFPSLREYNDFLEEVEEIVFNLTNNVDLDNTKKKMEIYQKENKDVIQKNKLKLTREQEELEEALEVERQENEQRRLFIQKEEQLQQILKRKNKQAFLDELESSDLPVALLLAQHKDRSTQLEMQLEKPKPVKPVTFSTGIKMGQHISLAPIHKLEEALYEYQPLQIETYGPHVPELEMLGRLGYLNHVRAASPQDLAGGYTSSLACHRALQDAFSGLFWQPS

Sequence of CDK4/D1 (P11802 whole entry, species assumed): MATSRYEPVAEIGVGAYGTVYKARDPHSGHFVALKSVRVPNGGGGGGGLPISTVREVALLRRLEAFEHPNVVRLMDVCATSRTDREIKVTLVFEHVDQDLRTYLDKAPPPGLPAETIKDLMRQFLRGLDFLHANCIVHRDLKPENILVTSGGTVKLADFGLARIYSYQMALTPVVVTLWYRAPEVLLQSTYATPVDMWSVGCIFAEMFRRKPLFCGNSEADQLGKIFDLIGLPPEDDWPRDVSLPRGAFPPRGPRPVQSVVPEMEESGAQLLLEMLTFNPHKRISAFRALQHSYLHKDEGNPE
Sequence of CDK4/D1 (P24385 whole entry partner, species assumed): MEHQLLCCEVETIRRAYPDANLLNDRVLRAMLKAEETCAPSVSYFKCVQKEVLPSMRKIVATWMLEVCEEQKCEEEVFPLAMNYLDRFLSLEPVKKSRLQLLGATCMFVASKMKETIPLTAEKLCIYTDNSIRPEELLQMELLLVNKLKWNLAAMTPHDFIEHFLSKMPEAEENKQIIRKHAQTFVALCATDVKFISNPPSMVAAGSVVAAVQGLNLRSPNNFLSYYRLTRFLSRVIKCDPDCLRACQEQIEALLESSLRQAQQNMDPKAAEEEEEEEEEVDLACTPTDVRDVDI
Sequence of CDK6/D3 (Q00534 whole entry, species assumed): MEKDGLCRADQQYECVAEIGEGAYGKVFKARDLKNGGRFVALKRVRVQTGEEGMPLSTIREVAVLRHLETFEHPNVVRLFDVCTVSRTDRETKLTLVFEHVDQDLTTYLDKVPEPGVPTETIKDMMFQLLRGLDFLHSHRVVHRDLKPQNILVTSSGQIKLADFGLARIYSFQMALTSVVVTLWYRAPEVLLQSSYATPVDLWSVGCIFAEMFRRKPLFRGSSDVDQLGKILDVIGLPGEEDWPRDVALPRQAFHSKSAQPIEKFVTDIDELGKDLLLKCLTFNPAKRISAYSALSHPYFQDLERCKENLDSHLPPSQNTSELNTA
Sequence of CDK6/D3 (P30281 whole entry partner, species assumed): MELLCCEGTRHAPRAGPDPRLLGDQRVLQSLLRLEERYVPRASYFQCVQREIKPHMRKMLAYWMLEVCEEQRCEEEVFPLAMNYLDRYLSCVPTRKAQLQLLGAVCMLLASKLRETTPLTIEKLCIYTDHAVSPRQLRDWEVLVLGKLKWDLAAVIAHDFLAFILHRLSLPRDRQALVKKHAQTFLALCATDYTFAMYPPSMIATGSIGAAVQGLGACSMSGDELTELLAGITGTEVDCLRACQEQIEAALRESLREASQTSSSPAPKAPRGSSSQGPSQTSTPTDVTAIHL
Sequence of CDK9/CyclinT1 (P50750 whole entry, species assumed): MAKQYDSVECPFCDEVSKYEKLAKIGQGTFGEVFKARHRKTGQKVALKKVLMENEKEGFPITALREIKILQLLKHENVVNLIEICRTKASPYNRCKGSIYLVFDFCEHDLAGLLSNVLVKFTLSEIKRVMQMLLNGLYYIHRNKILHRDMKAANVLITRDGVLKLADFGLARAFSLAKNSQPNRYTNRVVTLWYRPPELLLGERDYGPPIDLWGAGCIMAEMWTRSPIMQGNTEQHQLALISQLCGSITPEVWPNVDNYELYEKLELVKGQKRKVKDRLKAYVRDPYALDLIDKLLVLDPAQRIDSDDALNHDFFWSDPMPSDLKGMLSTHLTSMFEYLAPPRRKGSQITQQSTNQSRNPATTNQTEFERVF
Sequence of CDK9/CyclinT1 (O60563 whole entry partner, species assumed): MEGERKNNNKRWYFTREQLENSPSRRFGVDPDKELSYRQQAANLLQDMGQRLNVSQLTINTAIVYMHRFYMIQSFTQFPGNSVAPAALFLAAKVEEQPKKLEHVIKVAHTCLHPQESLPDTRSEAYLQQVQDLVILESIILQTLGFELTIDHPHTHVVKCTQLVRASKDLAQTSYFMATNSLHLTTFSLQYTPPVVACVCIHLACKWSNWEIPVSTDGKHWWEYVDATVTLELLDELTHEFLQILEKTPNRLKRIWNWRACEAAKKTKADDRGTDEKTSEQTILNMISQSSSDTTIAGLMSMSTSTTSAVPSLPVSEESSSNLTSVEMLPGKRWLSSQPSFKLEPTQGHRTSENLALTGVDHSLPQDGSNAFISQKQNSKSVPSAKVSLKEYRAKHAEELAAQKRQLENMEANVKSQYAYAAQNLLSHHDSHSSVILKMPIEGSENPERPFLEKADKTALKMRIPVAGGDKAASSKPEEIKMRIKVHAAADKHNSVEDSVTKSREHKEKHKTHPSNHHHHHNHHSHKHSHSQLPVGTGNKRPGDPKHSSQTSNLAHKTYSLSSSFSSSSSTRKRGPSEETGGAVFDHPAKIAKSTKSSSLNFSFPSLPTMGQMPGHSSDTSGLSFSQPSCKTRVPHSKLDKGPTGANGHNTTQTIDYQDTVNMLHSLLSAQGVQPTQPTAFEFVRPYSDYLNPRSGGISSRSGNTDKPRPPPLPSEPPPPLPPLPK
Sequence of CDK1B (P06493 whole entry): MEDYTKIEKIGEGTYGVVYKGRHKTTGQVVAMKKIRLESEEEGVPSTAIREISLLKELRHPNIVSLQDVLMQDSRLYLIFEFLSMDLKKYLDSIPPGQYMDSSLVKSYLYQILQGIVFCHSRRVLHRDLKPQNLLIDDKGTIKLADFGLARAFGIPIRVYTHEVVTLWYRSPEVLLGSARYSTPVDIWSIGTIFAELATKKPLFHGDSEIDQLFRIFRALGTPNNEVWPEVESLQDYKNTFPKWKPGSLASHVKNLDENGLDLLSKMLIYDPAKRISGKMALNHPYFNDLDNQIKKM
Sequence of CDK1B (P14635 whole entry partner): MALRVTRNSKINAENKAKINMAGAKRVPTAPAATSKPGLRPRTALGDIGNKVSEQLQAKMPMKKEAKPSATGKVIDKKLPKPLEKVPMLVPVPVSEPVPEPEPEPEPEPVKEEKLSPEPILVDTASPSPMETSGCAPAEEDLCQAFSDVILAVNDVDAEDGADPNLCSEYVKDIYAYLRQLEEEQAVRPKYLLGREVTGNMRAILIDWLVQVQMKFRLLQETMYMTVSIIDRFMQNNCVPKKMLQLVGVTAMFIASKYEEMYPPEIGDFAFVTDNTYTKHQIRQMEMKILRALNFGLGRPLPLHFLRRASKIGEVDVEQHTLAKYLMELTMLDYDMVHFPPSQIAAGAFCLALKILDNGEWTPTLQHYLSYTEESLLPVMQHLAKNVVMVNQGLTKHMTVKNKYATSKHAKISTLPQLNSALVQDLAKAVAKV

SMILES	remaining activity at 10 µM [1]	remaining activity at 10 µM [2]	Ki [3]	GI50 [4]	GI50 [5]	activity ([6]; 10 µM)	activity [7]	activity ([8]; 10 µM)	remaining activity at 1 µM [1]	remaining activity at 1 µM [2]	remaining activity at 1 µM [3]	activity ([6]; 1 µM)	activity ([8]; 1 µM)	Ki ([2]; apparent Ki calculated from Km (ATP) and IC50, read-out: CDK inhibition Ki)	remaining activity at 10 µM [3]
CC(=O)N1CCN(c2ccc(Nc3nccc(-c4cnc5ccc(-c6cccnc6)cn45)n3)nc2)CC1 [Cmpd 15, 1-(4-(6-((4-(6-(Pyridin-3-yl)imidazo[1,2-a]pyridin-3-yl)pyrimidin-2-yl)amino)pyridin-3-yl)piperazin-1-yl)ethan-1-one]	77%	91%	0.68 µM	0.005 µM	1.48 µM	64%	88%	65%							
CC(=O)N1CCCN(c2ccc(Nc3nccc(-c4cnc5ccccn45)n3)nc2)CC1 [Cmpd 6, 1-(4-(6-((4-(Imidazo[1,2-a]pyridin-3-yl)pyrimidin-2-yl)amino)pyridin-3-yl)-1,4-diazepan-1-yl)ethan-1-one]	48%	24%	1.38 µM	0.035 µM	11.4 µM	50%	85%	70%							
CC(=O)N1CCN(c2ccc(Nc3nccc(-c4cnc5ccc(-c6cnn(C)c6)cn45)n3)nc2)CC1 [Cmpd 27, 1-(4-(6-((4-(6-(1-Methyl-1H-pyrazol-4-yl)imidazo[1,2-a]pyridin-3-yl)pyrimidin-2-yl)amino)pyridin-3-yl)piperazin-1-yl)ethan-1-one]				0.002 µM	0.883 µM		89%		70%	70%	31%	88%	93%		
CC(=O)N1CCN(c2ccc(Nc3nccc(-c4cnc5ccc(C(F)(F)F)cn45)n3)nc2)CC1 [Cmpd 11, 1-(4-(6-((4-(6-(Trifluoromethyl)imidazo[1,2-a]pyridin-3-yl)pyrimidin-2-yl)amino)pyridin-3-yl)piperazin-1-yl)ethan-1-one]	46%			0.014 µM	3.9 µM	38%	97%	60%						> 5 µM	32%
CC(=O)N1CCN(c2ccc(Nc3nccc(-c4cnc5ccc(-c6cc7ccccc7o6)cn45)n3)nc2)CC1 [Cmpd 21, 1-(4-(6-((4-(6-(Benzofuran-2-yl)imidazo[1,2-a]pyridin-3-yl)pyrimidin-2-yl)amino)pyridin-3-yl)piperazin-1-yl)ethan-1-one]	78%	102%	> 5 µM	0.017 µM	4.56 µM	95%	86%	97%							
CC(=O)N1CCN(c2ccc(Nc3nccc(-c4cnc5ccc(-c6cnc(N)nc6)cn45)n3)nc2)CC1 [Cmpd 18, 1-(4-(6-((4-(6-(2-Aminopyrimidin-5-yl)imidazo[1,2-a]pyridin-3-yl)pyrimidin-2-yl)amino)pyridin-3-yl)piperazin-1-yl)ethan-1-one]	48%	100%		0.023 µM	8.7 µM	69%	97%	99%							
CC(=O)N1CCN(c2ccc(Nc3nccc(-c4cnc5ccc(-c6cc[nH]c6)cn45)n3)nc2)CC1 [Cmpd 23, 1-(4-(6-((4-(6-(1H-Pyrrol-3-yl)imidazo[1,2-a]pyridin-3-yl)pyrimidin-2-yl)amino)pyridin-3-yl)piperazin-1-yl)ethan-1-one]	50%	71%	0.421 µM	0.001 µM	0.323 µM	59%	76%	55%							
CC(=O)N1CCN(c2ccc(Nc3nccc(-c4cnc5ccc(-c6ccco6)cn45)n3)nc2)CC1 [Cmpd 12, 1-(4-(6-((4-(6-(Furan-2-yl)imidazo[1,2-a]pyridin-3-yl)pyrimidin-2-yl)amino)pyridin-3-yl)piperazin-1-yl)ethan-1-one]	93%	42%		0.009 µM	0.4 µM	70%	67%	86%							29%
CC(=O)N1CCN(c2ccc(Nc3nccc(-c4cnc5ccc(Nc6ccccc6)cn45)n3)nc2)CC1 [Cmpd 28, 1-(4-(6-((4-(6-(Phenylamino)imidazo[1,2-a]pyridin-3-yl)pyrimidin-2-yl)amino)pyridin-3-yl)piperazin-1-yl)ethan-1-one]				0.006 µM	1.49 µM		86%		77%	80%	61%	98%	91%		

The remaining lines, values ahead:

remaining activity at 10 µM [1]	remaining activity at 10 µM [2]	Ki [3]	GI50 [4]	GI50 [5]	activity ([6]; 10 µM)	activity [7]	activity ([8]; 10 µM)	remaining activity at 1 µM [1]	remaining activity at 1 µM [2]	remaining activity at 1 µM [3]	activity ([6]; 1 µM)	activity ([8]; 1 µM)	Ki ([2]; apparent Ki calculated from Km (ATP) and IC50, read-out: CDK inhibition Ki)	remaining activity at 10 µM [3]	SMILES
			0.043 µM	0.393 µM		47%		59%	59%	36%	100%	82%			CC(=O)N1CCN(c2ccc(Nc3ncc(F)c(-c4cnc5ccccn45)n3)nc2)CC1 [Cmpd 29, 1-(4-(6-((5-Fluoro-4-(imidazo[1,2-a]pyridin-3-yl)pyrimidin-2-yl)amino)pyridin-3-yl)piperazin-1-yl)ethan-1-one]
			0.038 µM	> 10 µM		92%		95%	85%	69%	101%				CC(=O)N1CCN(c2ccc(Nc3nccc(-c4cnc5ccc(-c6cc7ccccc7n6C)cn45)n3)nc2)CC1 [Cmpd 39, 1-(4-(6-((4-(6-(1-Methyl-1H-indol-2-yl)imidazo[1,2-a]pyridin-3-yl)pyrimidin-2-yl)amino)pyridin-3-yl)piperazin-1-yl)ethan-1-one]
			0.048 µM	1.88 µM		73%		76%	71%	43%	90%				CS(=O)(=O)N1CCN(c2ccc(Nc3nccc(-c4cnc5ccccn45)n3)nc2)CC1 [Cmpd 48, 4-(Imidazo[1,2-a]pyridin-3-yl)-N-(5-(4-(methylsulfonyl)piperazin-1-yl)pyridin-2-yl)pyrimidin-2-amine]
			0.387 µM	> 10 µM		66%		63%	68%	93%	91%				CC(=O)N1CCN(c2ccc(Nc3ncc(C)c(-c4cnc5ccccn45)n3)nc2)CC1 [Cmpd 44, 1-(4-(6-((4-(Imidazo[1,2-a]pyridin-3-yl)-5-methylpyrimidin-2-yl)amino)pyridin-3-yl)piperazin-1-yl)ethan-1-one]
			0.007 µM	2.4 µM				63%	86%						CN1CCN(c2ccc(Nc3nccc(-c4cnc5ccc(-c6ccccc6)cn45)n3)nc2)CC1 [Cmpd 46, N-(5-(4-Methylpiperazin-1-yl)pyridin-2-yl)-4-(6-phenylimidazo[1,2-a]pyridin-3-yl)pyrimidin-2-amine]
			0.044 µM	2.91 µM		82%		70%	70%	85%	99%	102%			CC(=O)N1CCN(c2ccc(Nc3nccc(-c4cnc5ccc(-c6cn(S(=O)(=O)c7ccccc7)c7ncccc67)cn45)n3)nc2)CC1 [Cmpd 38, 1-(4-(6-((4-(6-(1-(Phenylsulfonyl)-1H-pyrrolo[2,3-b]pyridin-3-yl)imidazo[1,2-a]pyridin-3-yl)pyrimidin-2-yl)amino)pyridin-3-yl)piperazin-1-yl)ethan-1-one]
			0.009 µM	4.33 µM						52%					CS(=O)(=O)N1CCN(c2ccc(Nc3nccc(-c4cnc5ccc(-c6ccccc6)cn45)n3)nc2)CC1 [Cmpd 54, N-(5-(4-(Methylsulfonyl)piperazin-1-yl)pyridin-2-yl)-4-(6-phenylimidazo[1,2-a]pyridin-3-yl)pyrimidin-2-amine]
			0.066 µM	2.49 µM		75%		55%	77%	100%	99%	80%			CC(=O)N1CCN(c2ccc(Nc3nccc(-c4cnc5ccc(-c6cn(S(=O)(=O)c7ccccc7)c7ccccc67)cn45)n3)nc2)CC1 [Cmpd 34, 1-(4-(6-((4-(6-(1-(Phenylsulfonyl)-1H-indol-3-yl)imidazo[1,2-a]pyridin-3-yl)pyrimidin-2-yl)amino)pyridin-3-yl)piperazin-1-yl)ethan-1-one]
			0.072 µM	4.04 µM		51%		55%	58%	33%	96%	77%			CC(=O)N1CCN(c2ccc(Nc3ncc(F)c(-c4cnc5ccc(F)cn45)n3)nc2)CC1 [Cmpd 30, 1-(4-(6-((5-Fluoro-4-(6-fluoroimidazo[1,2-a]pyridin-3-yl)pyrimidin-2-yl)amino)pyridin-3-yl)piperazin-1-yl)ethan-1-one]
